In patent US8344139B2, “Process for preparing crystalline polymorphic forms of (6R)-L-erythro-tetrahydrobiopterin dihydrochloride” (Merck Eprova AG, priority 2003, dated 2013):
Entries after “also recorded” stand apart in the source; their conditions may differ.

What was measured:
[1] = Hygroscopicity / water adsorption (thermogravimetry, TG-FTIR); assay type: physicochemical; settings: for hygroscopicity / adsorbed water content: dihydrochloride; for adsorbed water content: water released on heating at 10° C./minute
Procedure: 1.05 gram of (6R)-L-erythro-tetrahydrobiopterin dihydrochloride are dissolved in 4.0 ml of bi-distilled water at 23±2° C. The solution is filtrated through a 0.22 μm millipore filtration unit and the filtrate is transferred into a 250 ml round flask. The solution in this flask is frozen by placing the flask into a bed with solid carbon dioxide at −78° C. The flask with the frozen content is then connected to a laboratory freeze dryer operating at a starting pressure of about 0.05 mbar. After about 20 hours the freeze drying is complete and the vacuum flask is disconnected from the freeze dryer and about 1.0 g of white, crystalline solid material is obtained. […] The sample begins to decompose above 200° C. TG-FTIR: Thermogravimetric measurements are carried out with a Netzsch Thermo-Micro-balance TG 209 coupled to a Bruker FTIR Spectrometer Vector 22 (sample pans with a pinhole, N2 atmosphere, heating rate 10 K/min).

[2] = Storage of solid forms under defined relative humidity, resulting crystal form; assay type: physicochemical
Procedure: Hydrate form C is retained. 71 mg of polymorph form A according to example A1 are stored in air under 52% relative humidity at room temperature for 17 days. […] About 50 mg of polymorph form F according to example A26 are placed on an powder X-ray diffraction sample holder of 0.8 mm thickness (TTK type, obtained form Anton Pear GmbH, Graz, Austria). The prepared sample holder is placed in the closed sample chamber of a Philips X'Pert powder X-ray diffractometer and the sample chamber is purged with nitrogen and partially saturated with water vapour to a resulting relative humidity of about 52%. After an exposure time of about 24 hour a powder X-ray diffraction pattern is recorded.

[3] = Relative stability of the crystal forms as described; settings: for relative stability of the crystal form: dihydrochloride
[4] = Phase equilibration / suspension stability tests in solvents, solid form by FT Raman and X-ray diffraction; assay type: physicochemical; settings: room temperature
Procedure: 105 mg of polymorph A according to example A1 are suspended in 1.0 ml tertiary butyl methyl ether (TBME). The suspension is stirred under nitrogen atmosphere for about 18 hours at room temperature, filtrated and the white solid residue is then dried under air.
90 mg of polymorph A according to example A1 are suspended in 2.0 ml tetrahydrofuran (THF) and the resulting suspension is stirred in air for five days at room temperature, filtrated and the white solid residue is then dried under air.
The white suspension is stirred for 5 hours at room temperature, filtrated and dried under nitrogen at room temperature.
The white suspension is stirred over night at room temperature, filtrated and then dried under nitrogen at room temperature.
The white suspension is stirred over night at room temperature, filtrated and dried under nitrogen room temperature.
The white suspension is stirred in air over a weekend at room temperature, filtrated and then dried in air at room temperature. […] The white suspension is stirred for about 20 hours at room temperature, filtrated and dried in air at room temperature.
The suspension is stirred for about 20 hours at room temperature under nitrogen atmosphere, filtrated and then drying under nitrogen.
The suspension is stirred at room temperature under nitrogen atmosphere for about 23 hours, filtrated and dried in air.
105 mg of hydrate form D according to example B3 are suspended in 2.0 ml IPA. The suspension is stirred at room temperature for about 18 hours, filtered and the solid then dried in air at room temperature for about 4 hours.
Powder X-ray Diffraction (PXRD): PXRD is performed either on a Philips 1710 or on a Philips X'Pert powder X-ray diffractometer using CuKα radiation. D-spacings are calculated from the 2θ using the wavelength of the CuKα1 radiation of 1.54060 A. The X-ray tube was operated at a Voltage of 45 kV (or 40 kV with X'Pert Instrument), and a current of 45 mA (or 40 mA with X'Pert Instrument). A step size of 0.02°, and a counting time of 2.4 s per step is applied. Generally, 2θ values are within an error of ±0.1-0.2°. The experimental error on the d-spacing values is therefore dependent on the peak location.
Raman spectroscopy: FT-Raman spectra are recorded on a Bruker RFS 100 FT-Raman system with a near infrared Nd:YAG laser operating at 1064 nm and a liquid nitrogen-cooled germanium detector. For each sample, 64 scans with a resolution of 2 cm^−1 are accumulated. Generally; 300 mW laser power is used.

[5] = 52% relative humidity, room temperature, 17 days, dihydrochloride

SMILES: C[C@H](O)[C@H](O)[C@H]1CNc2nc(N)[nH]c(=O)c2N1.Cl.Cl [form E, (6R)-L-erythro-tetrahydrobiopterin dihydrochloride]
- hygroscopicity [1]: non-hygroscopic
- crystal form after storage [2, 5]: retained

SMILES: C[C@H](O)[C@H](O)[C@H]1CNc2nc(N)[nH]c(=O)c2N1.Cl.Cl [form F, (6R)-L-erythro-tetrahydrobiopterin dihydrochloride]
- hygroscopicity ([1]; listed as polymorph F): slightly hygroscopic
- adsorbed water content ([1]; listed as polymorph F): about 3 percent by weight
- crystal form after exposure to humidity ([2]; nitrogen with water vapour, relative humidity about 52%, about 24 hour): crystalline form O

SMILES: C[C@H](O)[C@H](O)[C@H]1CNc2nc(N)[nH]c(=O)c2N1.Cl.Cl [form N, (6R)-L-erythro-tetrahydrobiopterin dihydrochloride]
- hygroscopicity [1]: slightly hygroscopic

SMILES: C[C@H](O)[C@H](O)[C@H]1CNc2nc(N)[nH]c(=O)c2N1.Cl.Cl [form J, (6R)-L-erythro-tetrahydrobiopterin dihydrochloride]
- relative humidity at which the form transforms back into form E [3]: above 75 % relative humidity
- hygroscopicity ([1]; listed as polymorph J): slightly hygroscopic

SMILES: C[C@H](O)[C@H](O)[C@H]1CNc2nc(N)[nH]c(=O)c2N1.Cl.Cl [form C, (6R)-L-erythro-tetrahydrobiopterin dihydrochloride]
- conversion of the crystal form ([3]; about 40° C. in air and lower relative humidity): easily converted to polymorph form B
- hygroscopicity [1]: slightly hygroscopic
- crystal form after storage [2, 5]: retained

SMILES: C[C@H](O)[C@H](O)[C@H]1CNc2nc(N)[nH]c(=O)c2N1.Cl.Cl [form I, (6R)-L-erythro-tetrahydrobiopterin dihydrochloride]
- hygroscopicity [1]: hygroscopic

SMILES: C[C@H](O)[C@H](O)[C@H]1CNc2nc(N)[nH]c(=O)c2N1.Cl.Cl [form M, (6R)-L-erythro-tetrahydrobiopterin dihydrochloride]
- hygroscopicity [1]: slightly hygroscopic

SMILES: C[C@H](O)[C@H](O)[C@H]1CNc2nc(N)[nH]c(=O)c2N1.Cl.Cl [form D, (6R)-L-erythro-tetrahydrobiopterin dihydrochloride]
- crystal form after suspension stirring ([4]; IPA, about 18 hours): unchanged hydrate form D
- stability on exposure to air humidity ([3]; ambient temperature): stable
- relative stability of the crystal form [3]: most stable one under the known hydrates at ambient temperatures and a relative humidity of less than 70%; also recorded: most stable form under the hydrates
- relative stability of the crystal form ([3]; listed as hydrate D): much higher stability than form C
- hygroscopicity [1]: slightly hygroscopic

SMILES: C[C@H](O)[C@H](O)[C@H]1CNc2nc(N)[nH]c(=O)c2N1.Cl.Cl [form H, (6R)-L-erythro-tetrahydrobiopterin dihydrochloride]
- hygroscopicity [1]: hygroscopic

SMILES: C[C@H](O)[C@H](O)[C@H]1CNc2nc(N)[nH]c(=O)c2N1.Cl.Cl [form O, (6R)-L-erythro-tetrahydrobiopterin dihydrochloride]
- relative stability of the crystal form [3]: more stable than form F under ambient temperature and humidity conditions

SMILES: C[C@H](O)[C@H](O)[C@H]1CNc2nc(N)[nH]c(=O)c2N1.Cl.Cl [form A, (6R)-L-erythro-tetrahydrobiopterin dihydrochloride]
- crystal form after suspension stirring ([4]; tertiary butyl methyl ether, about 18 hours, nitrogen, dihydrochloride): unchanged polymorph form A
- crystal form after suspension stirring ([4]; tertiary butyl methyl ether, about 18 hours, nitrogen, listed as polymorph A, dihydrochloride): essentially still corresponds to form A
- crystal form after suspension stirring ([4]; tetrahydrofuran, five days, dihydrochloride): unchanged polymorph form A
- crystal form after suspension stirring ([4]; tetrahydrofuran, five days, listed as polymorph A, dihydrochloride): still corresponds to form A
- hygroscopicity ([1]; listed as polymorph A): slightly hygroscopic
- temperature above which the sample begins to decompose ([1]; thermogravimetry, heating rate 10° C./minute): above 200 °C
- adsorbed water content ([1]; listed as polymorph A): about 3 percent by weight
- crystal form after storage [2, 5]: corresponds to hydrate form E

SMILES: C[C@H](O)[C@H](O)[C@H]1CNc2nc(N)[nH]c(=O)c2N1.Cl.Cl [form G, (6R)-L-erythro-tetrahydrobiopterin dihydrochloride]
- hygroscopicity [1]: hygroscopic

SMILES: C[C@H](O)[C@H](O)[C@H]1CNc2nc(N)[nH]c(=O)c2N1.Cl.Cl [form B, (6R)-L-erythro-tetrahydrobiopterin dihydrochloride]
- crystal form after suspension stirring ([4]; 2-Propanol, over night, nitrogen): polymorph form B
- crystal form after suspension stirring ([4]; EtOH in air, over a weekend): slightly yellow crystalline solid, polymorph form B
- crystal form after suspension stirring ([4]; EtOH, over night, nitrogen): polymorph form B
- crystal form after suspension stirring ([4]; THF, about 20 hours, nitrogen (slightly yellow solid from the EtOH/air test)): slightly yellow crystalline solid, polymorph form B
- crystal form after suspension stirring ([4]; acetone, over night, nitrogen): polymorph form B
- crystal form after suspension stirring ([4]; acetonitrile containing 2% by weight of water, about 20 hours, nitrogen): polymorph form B
- crystal form after suspension stirring ([4]; ethyl acetate containing 2% by weight of water, about 23 hours, nitrogen): polymorph form B
- crystal form after suspension stirring ([4]; methanol, 5 hours, nitrogen): polymorph form B
- hygroscopicity ([1]; listed as Polymorph B): slightly hygroscopic
- crystal form after storage ([2]; open container under air, 75% relative humidity, 40° C., 5 days): still polymorph form B

SMILES: C[C@H](O)[C@H](O)[C@H]1CNc2nc(N)[nH]c(=O)c2N1.Cl.Cl [form K, (6R)-L-erythro-tetrahydrobiopterin dihydrochloride]
- relative stability of the crystal form ([3]; listed as polymorph K): less stable than form B at higher temperatures
- hygroscopicity ([1]; listed as polymorph K): slightly hygroscopic
- adsorbed water content ([1]; listed as polymorph K): about 2.0 percent by weight
